Experimental data taken from US11878975B2, “Substituted indole compounds useful as TLR inhibitors” (BRISTOL-MYERS SQUIBB COMPANY, priority 2017, dated 2024).

What was measured:
Assay type in all cases: cell-based
human TLR7 = molecular target: T1, human TLR7 (Homo sapiens, UniProt Q9NYK1); assay: TLR7 inhibition reporter assay (HEK-Blue cells, SEAP reporter, gardiquimod stimulation); conditions: HEK-Blue cells overexpressing human TLR7, SEAP reporter, gardiquimod 7.5 μM
T1 construct: host or cells: HEK-Blue cells
T1 sequence (Q9NYK1 27-1049): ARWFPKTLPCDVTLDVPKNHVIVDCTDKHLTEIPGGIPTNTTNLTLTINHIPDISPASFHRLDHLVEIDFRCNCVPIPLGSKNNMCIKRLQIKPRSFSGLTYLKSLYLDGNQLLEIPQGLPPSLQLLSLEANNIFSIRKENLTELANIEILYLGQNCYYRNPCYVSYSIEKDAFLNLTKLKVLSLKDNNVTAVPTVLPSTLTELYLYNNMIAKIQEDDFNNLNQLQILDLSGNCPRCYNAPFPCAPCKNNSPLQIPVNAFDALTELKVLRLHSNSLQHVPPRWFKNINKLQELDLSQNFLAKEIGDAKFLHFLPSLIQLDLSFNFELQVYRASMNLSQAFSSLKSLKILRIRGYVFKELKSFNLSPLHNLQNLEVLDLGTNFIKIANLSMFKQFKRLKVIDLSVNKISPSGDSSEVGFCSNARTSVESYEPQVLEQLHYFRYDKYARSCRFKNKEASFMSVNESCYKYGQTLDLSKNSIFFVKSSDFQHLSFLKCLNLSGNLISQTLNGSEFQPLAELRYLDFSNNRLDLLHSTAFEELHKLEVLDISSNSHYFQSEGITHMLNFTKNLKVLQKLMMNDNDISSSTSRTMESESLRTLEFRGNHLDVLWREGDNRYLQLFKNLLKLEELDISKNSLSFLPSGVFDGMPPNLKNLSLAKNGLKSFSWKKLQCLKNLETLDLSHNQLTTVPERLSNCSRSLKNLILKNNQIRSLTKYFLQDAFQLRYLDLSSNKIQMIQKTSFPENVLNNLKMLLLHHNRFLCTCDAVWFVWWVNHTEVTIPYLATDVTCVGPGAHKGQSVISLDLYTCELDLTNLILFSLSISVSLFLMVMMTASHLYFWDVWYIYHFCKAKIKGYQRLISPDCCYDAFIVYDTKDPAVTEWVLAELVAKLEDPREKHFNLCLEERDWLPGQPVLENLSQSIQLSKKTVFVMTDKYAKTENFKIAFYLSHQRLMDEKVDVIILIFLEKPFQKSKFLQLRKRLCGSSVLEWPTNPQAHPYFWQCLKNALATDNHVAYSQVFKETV
Procedure, shortened: (§1)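 Dose range 0.05 nM–50 μM; 30 min preincubation, RT. Agonists: TLR7 gardiquimod 7.5 μM, TLR8 R848 15.9 μM, TLR9 ODN2006 5 nM. 22 h, 37 °C, 5% CO2. SEAP (IFN-β minimal promoter with NF-κB/AP-1 sites) via colorimetric detection medium; % inhibition vs agonist+DMSO and reference-inhibitor wells.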

human TLR9 = molecular target: T2, human TLR9 (Homo sapiens, UniProt Q9NR96); assay: TLR9 inhibition reporter assay (HEK-Blue cells, SEAP reporter, ODN2006 stimulation); conditions: HEK-Blue cells overexpressing human TLR9, SEAP reporter, ODN2006 5 nM
T2 construct: host or cells: HEK-Blue cells
T2 sequence (Q9NR96 26-1032): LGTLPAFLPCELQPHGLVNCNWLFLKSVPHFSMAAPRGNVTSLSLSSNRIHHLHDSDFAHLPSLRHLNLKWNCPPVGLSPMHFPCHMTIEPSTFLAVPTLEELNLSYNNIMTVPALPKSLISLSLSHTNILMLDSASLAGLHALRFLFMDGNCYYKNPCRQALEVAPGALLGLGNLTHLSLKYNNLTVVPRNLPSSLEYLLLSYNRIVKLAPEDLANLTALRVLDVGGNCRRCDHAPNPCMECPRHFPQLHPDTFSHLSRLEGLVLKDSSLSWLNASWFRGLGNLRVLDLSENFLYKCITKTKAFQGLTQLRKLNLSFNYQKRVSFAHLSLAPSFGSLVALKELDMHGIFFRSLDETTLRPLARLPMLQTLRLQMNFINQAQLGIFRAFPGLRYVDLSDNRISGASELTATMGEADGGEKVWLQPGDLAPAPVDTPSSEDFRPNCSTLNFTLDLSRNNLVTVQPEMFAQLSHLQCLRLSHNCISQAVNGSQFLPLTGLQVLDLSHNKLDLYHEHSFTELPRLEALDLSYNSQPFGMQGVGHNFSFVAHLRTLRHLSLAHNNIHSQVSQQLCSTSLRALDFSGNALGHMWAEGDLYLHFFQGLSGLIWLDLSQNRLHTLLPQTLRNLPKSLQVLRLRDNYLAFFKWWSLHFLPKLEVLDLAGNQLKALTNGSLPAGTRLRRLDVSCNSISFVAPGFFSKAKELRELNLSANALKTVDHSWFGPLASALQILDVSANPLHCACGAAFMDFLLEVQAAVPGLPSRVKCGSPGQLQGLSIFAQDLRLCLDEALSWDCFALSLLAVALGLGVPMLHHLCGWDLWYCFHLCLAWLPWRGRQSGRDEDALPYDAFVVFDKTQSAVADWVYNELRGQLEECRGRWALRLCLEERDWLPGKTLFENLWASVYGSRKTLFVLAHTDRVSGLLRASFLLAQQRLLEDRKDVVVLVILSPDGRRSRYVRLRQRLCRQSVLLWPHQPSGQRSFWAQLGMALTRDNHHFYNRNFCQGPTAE
Procedure, shortened: as §1

human TLR8 = molecular target: T3, human TLR8 (Homo sapiens, UniProt Q9NR97); assay: TLR8 inhibition reporter assay (HEK-Blue cells, SEAP reporter, R848 stimulation); conditions: HEK-Blue cells overexpressing human TLR8, SEAP reporter, R848 15.9 μM
T3 construct: host or cells: HEK-Blue cells
T3 sequence (Q9NR97 27-1041): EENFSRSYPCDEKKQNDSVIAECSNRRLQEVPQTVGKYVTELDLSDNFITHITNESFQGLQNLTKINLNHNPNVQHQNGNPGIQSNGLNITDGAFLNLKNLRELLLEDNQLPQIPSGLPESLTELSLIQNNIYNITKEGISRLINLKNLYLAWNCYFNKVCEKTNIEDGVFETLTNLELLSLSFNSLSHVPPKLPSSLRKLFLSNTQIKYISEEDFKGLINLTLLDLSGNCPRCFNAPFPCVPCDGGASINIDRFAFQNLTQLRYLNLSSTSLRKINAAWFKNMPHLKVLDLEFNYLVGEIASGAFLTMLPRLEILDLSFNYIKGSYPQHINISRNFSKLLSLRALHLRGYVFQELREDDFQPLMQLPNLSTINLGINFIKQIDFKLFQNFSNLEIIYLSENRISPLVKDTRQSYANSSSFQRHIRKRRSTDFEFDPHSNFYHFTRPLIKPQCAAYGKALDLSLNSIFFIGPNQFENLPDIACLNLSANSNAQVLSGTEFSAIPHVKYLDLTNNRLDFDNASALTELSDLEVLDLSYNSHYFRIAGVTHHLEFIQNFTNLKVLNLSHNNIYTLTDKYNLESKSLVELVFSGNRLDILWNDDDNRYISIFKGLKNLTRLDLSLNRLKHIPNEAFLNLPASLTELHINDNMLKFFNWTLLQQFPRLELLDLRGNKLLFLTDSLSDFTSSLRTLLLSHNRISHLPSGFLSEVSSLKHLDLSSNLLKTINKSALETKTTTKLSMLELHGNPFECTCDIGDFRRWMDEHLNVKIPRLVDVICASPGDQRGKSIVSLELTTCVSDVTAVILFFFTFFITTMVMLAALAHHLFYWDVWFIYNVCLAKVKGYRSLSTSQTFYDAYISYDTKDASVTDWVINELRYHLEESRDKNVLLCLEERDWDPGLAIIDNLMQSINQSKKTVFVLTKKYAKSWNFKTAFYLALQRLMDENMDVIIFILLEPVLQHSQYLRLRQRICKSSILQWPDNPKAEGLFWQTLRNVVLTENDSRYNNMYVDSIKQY
Procedure, shortened: as §1

IC50 (human TLR7) [nM] | IC50 (human TLR9) [nM] | IC50 (human TLR8) [nM] | Structure (SMILES)
0.4 | 1870 | 1.4 | COc1cc(-c2[nH]c3ccc(C4CC(N(C)C(=O)CN(C)C)C4)cc3c2C(C)C)cn2ncnc12 (stereo not drawn) [Example 588]
3 | 8180 | 14 | Cc1c(-c2[nH]c3ccc(C4CC5CN(CC(=O)N(C)C)CC5C4)cc3c2C(C)C)cn2ncnc2c1C (stereo not drawn) [Example 507]
5 | 3670 | 8.3 | Cc1cc(-c2[nH]c3ccc(C4CN(C5CCOC(C)(C)C5)C4)cc3c2C(C)C)cn2ncnc12 (stereo not drawn) [Example 269, 6-(5-(1-(2,2-dimethyltetrahydro-2H-pyran-4-yl)azetidin-3-yl)-3-isopropyl-1H-indol-2-yl)-8-methyl-[1,2,4]triazolo[1,5-a]pyridine]
7 | 6140 | 0.56 | COc1cc(-c2[nH]c3ccc(C4CN(C)CCO4)cc3c2C(C)C)cn2ncnc12 (stereo not drawn) [Example 301]
618 | 22900 | 66 | COc1cc(-c2[nH]c3ccc(C4CN(CC(=O)N(C)C)C4)cc3c2C(C)C)cn2ncnc12 [Example 262]
5 | 29100 | 22 | Cc1cc(-c2[nH]c3ccc(C4CN(C5COC5)C4)cc3c2C(C)C)cn2ncnc12 [Example 271]
64 | 1890 | 132 | Cc1c(-c2[nH]c3ccc(C4CN(CC(=O)N(C)C)C4)cc3c2C(C)C)cn2cnnc2c1C [Example 539]
0.39 | 2680 | 0.33 | Cc1c(-c2[nH]c3ccc(C4CCC(N5CCOCC5)CC4)cc3c2C(C)C)cn2ncnc2c1C (single isomer, unassigned) [Example 92]
1 | 6060 | 8.2 | Cc1cc(-c2[nH]c3ccc(C4CCC(NC5COC5)CC4)cc3c2C(C)C)cn2ncnc12 (stereo not drawn) [Example 57]
6 | 6970 | 34 | Cc1c(-c2[nH]c3ccc(C4CCC(N(C)C5COC5)CC4)cc3c2C(C)C)cn2cnnc2c1C (stereo not drawn) [Example 526]
2 | 5740 | 0.79 | Cc1c(-c2[nH]c3ccc(C4CC(N)C4)cc3c2C(C)C)cn2ncnc2c1C (stereo not drawn) [Example 541]
1 | 3250 | 0.79 | Cc1c(-c2[nH]c3ccc(C4CCC(N5CC6(COC6)C5)CC4)cc3c2C(C)C)cn2ncnc2c1C (stereo not drawn) [Example 113]
1 | 6590 | 21 | Cc1c(-c2[nH]c3ccc(C4CC5CNCC5C4)cc3c2C(C)C)cn2ncnc2c1C (stereo not drawn) [Example 506]

The next lines start with the molecule.

Structure (SMILES) | IC50 (human TLR7) [nM] | IC50 (human TLR9) [nM] | IC50 (human TLR8) [nM]
Cc1cc(-c2[nH]c3ccc(C4CN(C5COC5)CCO4)cc3c2C(C)C)cc(C)n1 (stereo not drawn) [Example 304] | 89 | > 50000 | 108
COc1cc(-c2[nH]c3ccc(C4CCC(NCC(F)F)CC4)cc3c2C(C)C)cn2ncnc12 (single isomer, unassigned) [Example 67] | 0.17 | 5760 | 1.3
COc1cc(-c2[nH]c3ccc(C4CCC(N5CC(C)OC(C)C5)CC4)cc3c2C(C)C)cn2ncnc12 (stereo not drawn) [Example 41] | 4 | 2280 | 7.7
COc1cc(-c2[nH]c3ccc(C4CCC(N(C)CCC(F)(F)F)CC4)cc3c2C(C)C)cn2ncnc12 (stereo not drawn) [Example 75] | 0.87 | 4760 | 2
Cc1cc(-c2[nH]c3ccc(CCN4CCS(=O)(=O)CC4)cc3c2C(C)C)cc(C)n1 [Example 401] | 27 | 3430 | 86
COCCN1CCOC(c2ccc3[nH]c(-c4cc(C)nc(C)c4)c(C(C)C)c3c2)C1 (stereo not drawn) [Example 352] | 42 | 3700 | 15
CC(C)c1c(-c2ccnc3[nH]ncc23)[nH]c2ccc(C3CCC(Oc4ccncc4)CC3)cc12 (stereo not drawn) [Example 505] | 347 | 13900 | 774
Cc1cc(-c2[nH]c3ccc(CCN4CCCCC4)cc3c2C(C)C)cn(C)c1=O [Example 409] | 23 | 15600 | 3
COc1cc(-c2[nH]c3ccc(C4CCC(N5CC[C@@H](N(C)C)C5)CC4)cc3c2C(C)C)cn2ncnc12 (stereo partly drawn) [Example 30] | 3 | 824 | 5
COc1cc(-c2[nH]c3ccc(C4CCCN(CC(=O)N(C)C)C4)cc3c2C(C)C)cn2ncnc12 (stereo not drawn) [Example 222, 2-(3-(3-isopropyl-2-(8-methoxy-[1,2,4]triazolo[1,5-a]pyridin-6-yl)-1H-indol-5-yl)piperidin-1-yl)-N,N-dimethylacetamide] | 2 | 3100 | 9.2
Cc1cc(-c2[nH]c3ccc(C4CCCN(C(=O)C5(C)CC5)C4)cc3c2C(C)C)cc(C)n1 (stereo not drawn) [Example 199] | 89 | 36900 | 427
